This note sets out measurements from patent publication US20090054329A1, “COMPOSITION WITH DOCOSAPENTAENOIC ACID” (N.V. Nutricia, priority 2005, published 2009).

Assay [1] relates to intestinal epithelial cell lines T84. Briefly: Permeability for 4 kD FITC dextran (flux) across T84 monolayers. It counts as cell-based, human. The conditions noted are these: for Permeability (Flux) Increased by IL-4: T84 monolayers, fatty acid 100 μM, 72 hr incubation, IL-4, 4 kDa FITC-dextran; for Effect on increase of permeability caused by cytokines (in words): incubations with cytokines (IL-4), 100 μM, 72 hr. As for the experimental part:
Monolayers (MC) of intestinal epithelial cell lines T84 (American Type Culture Collection (ATTC), Manassas, USA) were cultured on transwell filters (Corning, Costar BV, The Netherlands) allowing both mucosal and serosal sampling and stimulation of human intestinal epithelial cells. Two weeks post confluence the monolayers were incubated in the luminal compartment with polyunsaturated fatty acids DPA (7,10,13,16,19-docosapentaenoic acid, 22:5 n3), AA (arachidonic acid; 5,8,11,14-eicosatetraenoic acid), DHA (cis-4,7,10,13,16,19 docosahexaenoic acid), EPA (eicosapentaenoic acid) or control palmitic (C 16:0) acid (Palm) (Sigma, St. Louis, USA). The latter procedure was chosen to mimic the in vivo administration route of the dietary compounds. Cells were incubated with DPA, AA, DHA, EPA, or palmitic acid for 0, 24, 48 and 72 h at 100 μM.
(§1) Experiments were performed to evaluate basal barrier integrity and cytokine (IL-4) induced barrier disruption. The epithelial barrier function was determined by measuring the transepithelial resistance (TER, Ω.cm^2) by epithelial volt-ohm meter (EVOM; World Precision Instruments, Germany) and permeability for 4 kD FITC dextran (paracellular permeability marker, Sigma, USA). Epithelial permeability for 4 kDa FITC-dextran was determined as follows. Prior to dextran fluxes the medium was refreshed with culture medium without phenol red for one hour followed by addition of 5 μl (stock 100 mg/ml) 4 kDa FITC-dextran to the luminal compartment. After 60 min of incubation 100 μl sample was collected from the serosal compartment and the fluorescent signal measured at excitation wavelength 485 nm and emission 520 nm (FLUOstar Galaxy®, BMG Labtechnologies, USA). FITC-dextran fluxes were calculated as pmol FITC-dextran/cm^2/h. Statistical analyses were performed using the ANOVA (SPSS version 10).

Assay [2] shares this test system. Briefly: Transepithelial resistance (TER) of T84 monolayers. It counts as cell-based, human. The conditions noted are these: for Resistance (TER) Disrupted by IL-4 / Resistance (TER) Basal: T84 monolayers, fatty acid 100 μM, 72 hr incubation; for Resistance (TER) Disrupted by IL-4: IL-4 mediated barrier disruption; for Effect on epithelial resistance (in words): both under basal and barrier disruptive conditions, 100 μM, 72 hr; for Effect on barrier integrity and epithelial paracellular permeability (in words): summary statement. As for the experimental part: as §1, with “Monolayers (MC) of intestinal epithelial cell lines T84 (American Type Culture Collection (ATTC), Manassas, USA) were cultured on transwell filters (Corning, Costar BV, The Netherlands) allowing both mucosal and serosal sampling and stimulation of human intestinal epithelial cells. […] Louis, USA). The latter procedure was chosen to mimic the in vivo administration route of the dietary compounds. […] Experiments” for “Experiments”

The subject of the next assay is MUC-2 expression. The conditions noted are these: MC T84 and CC T84; compared to propionate and butyrate. The source says: See also the examples in applicants' co-pending European application no. 04748674.1).

As for `CCCCCC=CCC=CCC=CCC=CCCCC(=O)O` [AA, 5,8,11,14-eicosatetraenoic acid], in assay [1], the “Permeability (Flux) Increased by IL-4” value came to 273 ± 76 pmol FITC-dextran/cm^2/h and the “Effect on increase of permeability caused by cytokines (in words)” value (“Effect on increase” for short) is listed as “effectively reduced”. Besides, in assay [2], the “Resistance (TER) Disrupted by IL-4” value is 337 ± 13 Ω.cm^2, the “Resistance (TER) Basal” value is on record as 634 ± 29 Ω.cm^2 and the “Effect on epithelial resistance (in words)” value is “improve epithelial resistance”.

In the case of `CCC=CCC=CCC=CCC=CCC=CC/C=C\CCC(=O)O` [DHA, cis-4,7,10,13,16,19 docosahexaenoic acid], in assay [1], the “Permeability (Flux) Increased by IL-4” value amounted to 304 ± 75 pmol FITC-dextran/cm^2/h and the “Effect on increase” value is given as “effectively reduced”. In assay [2], the “Resistance (TER) Disrupted by IL-4” value was 328 ± 7 Ω.cm^2, the “Resistance (TER) Basal” value is recorded as 584 ± 50 Ω.cm^2 and the “Effect on epithelial resistance (in words)” value is recorded as “improve epithelial resistance”.

With `CCC=CCC=CCC=CCC=CCC=CCCCCCC(=O)O` [DPA, 7,10,13,16,19-docosapentaenoic acid], in assay [1], the “Permeability (Flux) Increased by IL-4” value was 216 ± 123 pmol FITC-dextran/cm^2/h and the “Effect on increase” value is listed as “effectively reduced”. For the same molecule, in assay [2], the “Resistance (TER) Disrupted by IL-4” value was 368 ± 4 Ω.cm^2; the “Resistance (TER) Basal” value is recorded as 605 ± 27 Ω.cm^2; the “Effect on epithelial resistance (in words)” value was “improve epithelial resistance”; the “Effect on barrier integrity and epithelial paracellular permeability (in words)” value was “effectively improves barrier integrity and reduces epithelial paracellular permeability”.

With `CC/C=C\C/C=C\C/C=C\C/C=C\C/C=C\CCCC(=O)O` [EPA, eicosapentaenoic acid], the “Permeability (Flux) Increased by IL-4” value in assay [1] is listed as 236 ± 145 pmol FITC-dextran/cm^2/h. Besides, in assay [2], the “Resistance (TER) Disrupted by IL-4” value is listed as 375 ± 9 Ω.cm^2 and the “Resistance (TER) Basal” value is listed as 584 ± 7 Ω.cm^2.

For `CCCCCCCCCCCCCCCC(=O)O` [Palmitic acid, palmitic acid], in assay [1], the “Permeability (Flux) Increased by IL-4” value stood at 646 ± 106 pmol FITC-dextran/cm^2/h and the “Effect on increase” value is listed as “not”. For the same molecule, in assay [2], the “Resistance (TER) Disrupted by IL-4” value was 272 ± 11 Ω.cm^2, the “Resistance (TER) Basal” value is given as 496 ± 50 Ω.cm^2 and the “Effect on epithelial resistance (in words)” value was “not effective”.

On to `CC(=O)O` [acetate], for which the “Stimulation of MUC-2 expression (mucus production)” value with MUC-2 expression is recorded as “more potent in stimulating MUC-2 expression”.

For `CCCCC/C=C\C/C=C\CCCCCCCC(=O)O` [linoleic acid], the “Effect on barrier integrity and epithelial paracellular permeability (in words)” value in assay [2] is listed as “ineffective”.
